Test results reported in ChEMBL document CHEMBL6153038, “Uncovering Hericenones from the Fruiting Bodies of Hericium erinaceus through Interdisciplinary Collaboration” (J Nat Prod, 2025).

What was measured:
[1] = test system: N2a; test: Neuroprotective activity against thapsigargin-induced ER stress in mouse Neuro2a cells assessed as cell viability at 10 to 100 ug/ml pre-incubated for 2 hrs followed by thapsigargin addition for 22 hrs by MTT assay; assay type: functional, cell-based; conditions: dose 10-100 µg/ml, time 24.0 hrs
[2] = test system: N2a; test: Neuroprotective activity against tunicamycin-induced ER stress in mouse Neuro2a cells assessed as cell viability at 10 to 100 ug/ml pre-incubated for 2 hrs followed by tunicamycin addition for 22 hrs by MTT assay; assay type: functional, cell-based; conditions: dose 10-100 µg/ml, time 24.0 hrs

| Compound | Activity [1] | Activity [2] |
| --- | --- | --- |
| CCCCCCCCCCCCCCCC(=O)OCc1cc(OC)c2c(c1C=O)OC(/C(C)=C\C(=O)C=C(C)C)C2 (racemic) | Active; Significant Protective Activity | Active; Significant Protective Activity |
| CCCCCCCCCCCCCCCC(=O)OCc1cc(OC)c(C[C@H]2O[C@]2(C)CC(=O)C=C(C)C)c(O)c1C=O (racemic) | Not active; No Protective Activity | Not active; No Protective Activity |
| CCCCCCCCCCCCCCCC(=O)OCc1cc(OC)c2c(c1C=O)OC(/C(C)=C/C(=O)C=C(C)C)C2 (racemic) | Active; Significant Protective Activity | Active; Significant Protective Activity |
